The text below walks through data of PubChem BioAssay AID328 (DTP/NCI, 2004).

This test relates to BDF1 mice, P388 leukemia ip, median survival T/C. Kind of test: NCI In Vivo Anticancer Drug Screen. Data for tumor model P388 Leukemia (intraperitoneal) in B6D2F1 (BDF1) mice. The following applies: endpoint: median survival time, higher = longer survival. The method, boiled down:
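Reported as T/C, where T is the survival measurement in dosed animals and C the same measurement in vehicle controls.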

[1] abbreviates: dose: 1.5 mg/kg/injection, schedule: Q01DX009 (ip), vehicle: saline.
The mark [2] stands for this setting: dose: 3.0 mg/kg/injection, schedule: Q01DX009 (ip), vehicle: saline.
The mark [3] stands for this setting: dose: 100.0 mg/kg/injection, schedule: Q01DX009 (ip), vehicle: saline with Tween-80.
The mark [4] stands for this setting: dose: 100.0 mg/kg/injection, schedule: Q01DX009 (ip), vehicle: saline.
Where [5] appears, read: dose: 200.0 mg/kg/injection, schedule: Q01DX009 (ip), vehicle: saline with Tween-80.
The mark [6] stands for this setting: dose: 200.0 mg/kg/injection, schedule: Q01DX009 (ip), vehicle: saline.
Setting [7] is: dose: 400.0 mg/kg/injection, schedule: Q01DX009 (ip), vehicle: saline.
Where [8] appears, read: dose: 50.0 mg/kg/injection, schedule: Q01DX009 (ip), vehicle: saline with Tween-80.
The mark [9] stands for this setting: dose: 50.0 mg/kg/injection, schedule: Q04DX003 (ip), vehicle: Klucel (hydroxypropylcellulose) (HPC).
Setting [10] is: dose: 100.0 mg/kg/injection, schedule: Q04DX003 (ip), vehicle: saline with Tween-80.
[11] abbreviates: dose: 200.0 mg/kg/injection, schedule: Q04DX003 (ip), vehicle: saline with Tween-80.
The mark [12] stands for this setting: dose: 25.0 mg/kg/injection, schedule: Q01DX009 (ip), vehicle: saline with Tween-80.

Where “and” joins values, the source holds several entries; their conditions need not be identical. Identical values can stand only once. Toxic doses and inconclusive results are not listed.

In the case of `OCC1OC(n2cnc3c2NC=NC[C@H]3O)CC1O` (some centres not stated), the T/C (dose: 0.25 mg/kg/injection, schedule: Q01DX005 (ip), vehicle: water) was 102 % of control; the T/C (dose: 0.25 mg/kg/injection, schedule: Q01DX009 (ip), vehicle: water) is 105 % of control; the T/C (dose: 0.25 mg/kg/injection, schedule: Q04DX002 (ip), vehicle: saline) was 102 % of control; the T/C (dose: 0.25 mg/kg/injection, schedule: Q04DX003 (ip), vehicle: saline) is 100 % of control; the T/C (dose: 0.5 mg/kg/injection, schedule: Q01DX005 (ip), vehicle: water) is 109 % of control; the T/C (dose: 0.5 mg/kg/injection, schedule: Q01DX009 (ip), vehicle: water) is 102 % of control. In addition, the T/C by setting is: (dose: 0.5 mg/kg/injection, schedule: Q04DX002 (ip), vehicle: saline) 101 % of control; (dose: 0.5 mg/kg/injection, schedule: Q04DX003 (ip), vehicle: saline) 99 % of control; (dose: 0.8 mg/kg/injection, schedule: Q01DX009 (ip), vehicle: saline) 94 % of control; (dose: 1.0 mg/kg/injection, schedule: Q01DX009 (ip), vehicle: saline) 99 % of control; (dose: 1.3 mg/kg/injection, schedule: Q01DX009 (ip), vehicle: saline) 92 % of control; under setting [1], 96 % of control. In addition, the T/C is 108 % of control (dose: 2.0 mg/kg/injection, schedule: Q01DX001 (ip), vehicle: saline); 92 % of control (dose: 2.0 mg/kg/injection, schedule: Q01DX009 (ip), vehicle: saline); 99 % of control (dose: 2.25 mg/kg/injection, schedule: Q01DX009 (ip), vehicle: saline); 100 % of control under setting [2]; 100 % of control (dose: 4.0 mg/kg/injection, schedule: Q01DX001 (ip), vehicle: saline).
With `NC(Cc1ccc([N+](=O)[O-])cc1)C(=O)O` (configuration not stated), the T/C runs as follows: under setting [3], 105 % of control; under setting [4], 100 % of control; (dose: 100.0 mg/kg/injection, schedule: Q04DX003 (ip), vehicle: other) 100 % of control; under setting [5], 110 % of control; under setting [6], 100 % of control; (dose: 200.0 mg/kg/injection, schedule: Q04DX003 (ip), vehicle: other) 104 % of control. Further, the T/C was 90 % of control (dose: 400.0 mg/kg/injection, schedule: Q01DX009 (ip), vehicle: saline with Tween-80); 86 % of control under setting [7]; 100 % of control (dose: 400.0 mg/kg/injection, schedule: Q04DX003 (ip), vehicle: other).
For `OC(c1ccccc1)c1ccccc1CN1CCCNC1=S` (configuration not stated), the T/C was 95 % of control under setting [8], 103 % of control under setting [3] and 94 % of control under setting [5].
With `CCC(c1ccc2cc(OC)ccc2c1)C(C(=O)O)C(=O)O` (configuration not stated), the T/C under setting [9] was 87 % of control.
Turning to `CC1CC(C)(C)N=C(C[Si](C)(C)CC2=NC(C)(C)CC(C)O2)O1` (configuration not stated), the T/C is 114 % of control (dose: 25.0 mg/kg/injection, schedule: Q04DX003 (ip), vehicle: Klucel (hydroxypropylcellulose) (HPC)); 109 % of control under setting [9]; 113 % of control (dose: 100.0 mg/kg/injection, schedule: Q04DX003 (ip), vehicle: Klucel (hydroxypropylcellulose) (HPC)).
`O=c1ccc2c([nH]1)CCCCC2`: the T/C runs as follows: (dose: 50.0 mg/kg/injection, schedule: Q04DX003 (ip), vehicle: saline sonified) 104 % of control; (dose: 100.0 mg/kg/injection, schedule: Q04DX003 (ip), vehicle: saline sonified) 100 % of control; (dose: 200.0 mg/kg/injection, schedule: Q04DX003 (ip), vehicle: saline sonified) 95 % of control.
Turning to `O=[N+]([O-])C(c1ccccc1)C(c1ccccc1)C(c1ccccc1)[N+](=O)[O-]` (configuration not stated), the T/C (dose: 50.0 mg/kg/injection, schedule: Q01DX005 (ip), vehicle: saline with Tween-80) was 103 % of control; the T/C (dose: 100.0 mg/kg/injection, schedule: Q01DX005 (ip), vehicle: saline with Tween-80) was 87 % of control; the T/C (dose: 200.0 mg/kg/injection, schedule: Q01DX005 (ip), vehicle: saline with Tween-80) is 91 % of control.
`COc1cc(C=Nc2ccc(-n3ccnc3C)cc2)ccc1N(CCCl)CCCl`: the T/C runs as follows: (dose: 5.0 mg/kg/injection, schedule: Q01DX009 (ip), vehicle: Klucel (hydroxypropylcellulose) (HPC)) 157 % of control; (dose: 7.5 mg/kg/injection, schedule: Q01DX009 (ip), vehicle: Klucel (hydroxypropylcellulose) (HPC)) 162 % of control.
Take `CCCCCCCCCCCCCCCCCC[N+]1([O-])CCCC1`: the T/C (dose: 12.5 mg/kg/injection, schedule: Q01DX009 (ip), vehicle: water) was 100 % of control; the T/C (dose: 25.0 mg/kg/injection, schedule: Q01DX009 (ip), vehicle: water) was 93 % of control; the T/C (dose: 50.0 mg/kg/injection, schedule: Q01DX009 (ip), vehicle: water) was 93 % of control.
Take `CS(=O)(=O)OC[C@H](OS(=O)(=O)O)[C@H](COS(C)(=O)=O)OS(=O)(=O)O`: the T/C is 110 % of control (dose: 50.0 mg/kg/injection, schedule: Q04DX003 (ip), vehicle: saline with Tween-80); 110 % of control under setting [10]; 110 % of control under setting [11].
For the compound `O=C(O)c1ccccc1Oc1ccccc1C(=O)O`, the T/C runs as follows: under setting [4], 100 % of control; under setting [6], 90 % of control; under setting [7], 104 % of control.
Regarding `CN1Cc2c(ccc3c2OCO3)[C@@H]2[C@H](O)Cc3cc4c(cc3[C@@H]21)OCO4`, the T/C runs as follows: (dose: 50.0 mg/kg/injection, schedule: Q01DX010 (ip), vehicle: saline) 100 % of control; (dose: 100.0 mg/kg/injection, schedule: Q01DX010 (ip), vehicle: saline) 100 % of control.
Take `O=c1[nH]c(C(F)(F)F)nc2c1nc1n2CCC1`: the T/C under setting [10] was 104 % of control; the T/C under setting [11] was 100 % of control; the T/C (dose: 400.0 mg/kg/injection, schedule: Q04DX003 (ip), vehicle: saline with Tween-80) was 100 % of control.
On to `CCN(CC)c1ccc2cc3ccc(=[N+](CC)CC)cc-3oc2c1`, for which the T/C (dose: 2.5 mg/kg/injection, schedule: Q01DX009 (ip), vehicle: saline) is 120 % of control; the T/C (dose: 7.5 mg/kg/injection, schedule: Q01DX009 (ip), vehicle: saline sonified) is 120 % of control; the T/C (dose: 10.0 mg/kg/injection, schedule: Q04DX003 (ip), vehicle: saline) was 104 % of control.
As for `c1ccc(N=NC2=NN(c3ccccc3)CCS2)cc1`, the T/C is, setting by setting: under setting [12], 116 % of control; under setting [8], 105 % of control; under setting [3], 122 % of control.
For `CCCCCCCCCCCCCCCCN(C)CCO`, for the setting “dose: 50.0 mg/kg/injection, schedule: Q01DX009 (ip), vehicle: saline + alcohol”, the T/C is 97 % of control.
Regarding `C=CC1CC[N-]CC1.C=CC1CC[N-]CC1.C=CC1CC[N-]CC1.[Cl][Cr]([Cl])[Cl]`, the T/C (dose: 12.5 mg/kg/injection, schedule: Q01DX009 (ip), vehicle: saline with Tween-80) was 100 % of control; the T/C under setting [12] was 109 % of control; the T/C under setting [8] is 104 % of control.
On to `COc1cc(NCCCC(C)N)c2ncccc2c1OC` (configuration not stated), for which the T/C was 101 % of control (dose: 6.25 mg/kg/injection, schedule: Q01DX009 (ip), vehicle: saline); 109 % of control (dose: 12.5 mg/kg/injection, schedule: Q01DX009 (ip), vehicle: saline); 116 % of control (dose: 25.0 mg/kg/injection, schedule: Q01DX009 (ip), vehicle: saline).
Consider `O=C1CC(Nc2ccccc2)=C([N+](=O)[O-])C(=O)N1`, for which the T/C under setting [8] is 109 % of control, the T/C under setting [3] is 102 % of control and the T/C under setting [5] is 109 % of control.
On to `O=C(c1ccc(C(=O)N2CC2)cc1)N1CC1`, for which the T/C is, setting by setting: (dose: 5.0 mg/kg/injection, schedule: Q01DX009 (ip), vehicle: saline with Tween-80) 95 % of control; (dose: 20.0 mg/kg/injection, schedule: Q01DX009 (ip), vehicle: saline with Tween-80) 109 % of control.
On to `O=c1[nH]cc(F)c(=O)n1C1OC(CO)C(O)C1O` (configuration not stated), for which the T/C runs as follows: (dose: 0.75 mg/kg/injection, schedule: Q01DX009 (ip), vehicle: saline) 169 % of control and 180 % of control; under setting [1], 162 % of control and 217 % of control; under setting [2], 230 % of control and 188 % of control; (dose: 6.0 mg/kg/injection, schedule: Q01DX009 (ip), vehicle: saline) 100 % of control.
